Format in all cases: cell-based, human
One assay concerns KU1919-GemCis cells. Nature of the assay: Metabolomics of intracellular taurine. Particulars: KU1919-GemCis cells with knockdown of NPEPPS, 10 μM cisplatin. As for the experimental part: Given that VRACs transport cisplatin and carboplatin and finding NPEPPS in complex with VRAC subunits (FIGS. 4C-4D), NPEPPS may be a negative regulator of VRAC activity, consequently reducing import of intracellular cisplatin. Thus, the impact of NPEPPS on osmolytes known to be transported through VRACs was assessed.
Metabolomics. Sample preparation. Cell lines were cultured for several passages in IMDM+10% FBS (IMDM10). Prior to experiment, cells were cultured in IMDM10 to ˜80% confluence and then dissociated. For dissociation, cells were washed once with room temperature PBS and then incubated with PBS+0.05% Trypsin-EDTA for 10-15 minutes. Cells were neutralized with IMDM10 and then fully dissociated by gentle pipetting. After dissociation, cells were counted by Trypan blue staining and then replated at 1×10^6 cells. 24 hours after plating, cells were treated with either IMDM10 or IMDM10+10 μM cisplatin. Day 0 cell cultures were immediately processed for metabolomics analysis. […] Cells were suspended in PBS, centrifuged a second time, and then resuspended in PBS and counted. […]
Data generation and analysis. […] Supernatants were clarified by centrifugation (10 minutes, 18,000 g, 4° C.) and 10 μL analyzed using a Thermo Vanquish UHPLC coupled to a Thermo Q Exactive mass spectrometer. […]

Assay [1] concerns bladder tumor-derived organoids. Nature of the assay: Tumor-derived organoid drug screening (alamarBlue viability, reseeding). As for the experimental part:
Three independent organoid models derived from patients that failed between 4 to 6 cycles of neoadjuvant gemcitabine plus cisplatin chemotherapy (FIG. 10A). The organoids mimicked the morphological and genomic characteristics of the tumor from which they were derived (FIG. 10B). These organoids were treated with increasing doses of cisplatin and 20 μM of tosedostat.
Tumor-derived Organoids. Culture of the organoids. Human bladder tissue was obtained from the Erasmus MC Bladder Cancer Center, Rotterdam, the Netherlands. Bladder tumor-derived organoids from biopsies obtained through TURBT or cystectomy. Briefly, bladder tissues were washed with Advanced DMEM/F12 (Gibco) supplemented with 10 mM HEPES (Gibco), 1% GlutaMax (Gibco) and 100 μg/ml primocin (InvivoGen), henceforth Ad+++. Tissue was minced and incubated at 37° C. with the digestion solution (collagenase 2.5 mg/ml in EBSS) and isolated cells were passed through […] strainer (Falcon), washed with Ad+++ and seeded in 50 μl drops of BME (R&D system) containing 10000-15000 cells in 24 well suspension plates (Greiner). Bladder tumor organoids were cultured in a culture medium containing Ad+++ supplemented with 1×B-27 (Gibco), 1.25 mM N-acetylcysteine (Sigma), 10 mM nicotinamide, 20 μM TGFβ receptor inhibitor A83-01, 100 ng/ml recombinant human FGF10 (Peprotech), 25 ng/ml recombinant human FGF7 (Peprotech), 12.5 ng/ml recombinant human FGF2 (Peprotech), 10 μM Y27632 Rho Kinase (ROCK) Inhibitor (Sigma) and conditioned media for recombinant Rspondin (2.5% v/v), and Wnt3A (2.5% v/v). The medium was changed every three days. Organoids were passaged at a 1:3 to 1:6 ratio every 7 days using cell dissociation solution-non enzymatic (Sigma) and plated in fresh BME matrix droplets.
Drug screening. Organoids were collected 7 days after passaging, passed through a […] strainer and 1000 organoids were seeded per well of a 48-well plate in BME matrix droplets. After 24 hours cisplatin (Sigma) resuspended in PBS was added at different concentrations (2, 10, 25, and 50 μM) with or without tosedostat (20 μM) (Tocris) resuspended in DMSO. All wells were adjusted to contain less than 0.7% DMSO. Organoids were cultured for the first 6 days in the presence of drugs followed by drug withdrawal, where organoids were grown in organoid culture media for 10 days. The entire content of the wells in different treatment groups was collected, washed and reseeded after disaggregation in fresh BME, and cultured for 6 days. Cell viability was assayed using alamarBlue (Invitrogen) according to the manufacturer's instructions after 6 days of drug incubation, 10 days of drug withdrawal, and 6 days post reseeding. Viability data was normalized using organoid wells treated with vehicle control.
A general note: The colour change of resazurin is a common sign of viable cells or microbes.

In the next assay the test system is NPEPPS mRNA. As to the kind of experiment: Cisplatin induced NPEPPS mRNA expression (RT-qPCR). The method, then: Cisplatin induced NPEPPS mRNA expression. Total RNA was isolated from cells using Trizol (ThermoFisher) and/or phenol-chloroform based extraction methods. Residual DNA was digested with DNAse I (Life technologies). cDNA synthesis was performed using Superscript II Reverse Transcriptase kit (Life technologies) using random primers. RT-qPCR reactions were performed on a CFX Connect Real-Time PCR Detection System thermocycler (Bio-Rad) using TaqMan gene expression assays for NPEPPS and HMBS as a housekeeping gene (ThermoFisher) in combination with SensiFAST Probe No-ROX Kit (Bioline, Toronto, Canada). Expression data was calculated using 2^−ΔΔCt. All cell line experiments were performed in triplicate from independently grown cells. Comparisons at the indicated dose of cisplatin were made to the control treatment (0 μM cisplatin) using a t-test.
For orientation: Real-time PCR tracks product formation cycle by cycle.

These results are taken from patent publication US20240050392A1, “COMPOSITIONS AND METHODS FOR IMPROVED TREATMENT OF PLATINUM-BASED CHEMOTHERAPEUTIC RESISTANT TUMORS” (THE REGENTS OF THE UNIVERSITY OF THE COLORADO, A BODY …, priority 2021, published 2024).

As for `N.N.[Cl][Pt][Cl]` [cisplatin], the “intracellular levels of taurine” value with KU1919-GemCis cells is “reduced even further”. The “organoid growth after reseeding in new growth conditions” value in assay [1] (2 μM cisplatin alone) is listed as “able to re-grow”. In addition, in assay [1] (cisplatin alone at 25 μM), the organoid killing result was “all organoids were killed”. For the same compound, the “NPEPPS mRNA” value in the assay with NPEPPS mRNA (KU1919-Par and KU1919-GemCis cells after 24 hours of cisplatin treatment) is recorded as “increased”. Further, the NPEPPS induction entry in the assay with NPEPPS mRNA (patient-derived organoids treated with cisplatin) is on record as “induced NPEPPS in a dose dependent manner”.
